Tests used:
Assay in all cases: increase in dead-cell fraction, 72 h; higher = more death;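 note: breast cancer cell lines in 384-well plates, stained with Hoechst plus LIVE/DEAD far red dye and imaged, cells above an LDR intensity threshold counted dead, Hoechst-negative corpses included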
[1] = compound: CC(=O)Nc1cccc(-n2c(=O)n(C3CC3)c(=O)c3c(Nc4ccc(I)cc4F)n(C)c(=O)c(C)c32)c1
BVD523 = compound: CC(C)Nc1cc(-c2c[nH]c(C(=O)N[C@H](CO)c3cccc(Cl)c3)c2)c(Cl)cn1 [BVD523]
[2] = compound: CCCCOc1c(C(=O)c2c(F)cc(C)cc2F)c[nH]c2nncc1-2
ABT-737 = compound: CN(C)CC[C@H](CSc1ccccc1)Nc1ccc(S(=O)(=O)NC(=O)c2ccc(N3CCN(Cc4ccccc4-c4ccc(Cl)cc4)CC3)cc2)cc1[N+](=O)[O-] [ABT-737]
senexin b = compound: CN1CCN(C(=O)c2ccc3cc(CCNc4ncnc5ccc(C#N)cc45)ccc3c2)CC1 [senexin b]
Cediranib/AZD2171 = compound: COc1cc2c(Oc3ccc4[nH]c(C)cc4c3F)ncnc2cc1OCCCN1CCCC1 [Cediranib/AZD2171]
[3] = compound: COc1ccc2c(c1)[C@]1(C[C@H]1c1ccc3c(/C=C/c4ccc(CN5C[C@@H](C)O[C@@H](C)C5)cc4)n[nH]c3c1)C(=O)N2
AZD6738 = compound: C[C@@H]1COCCN1c1cc(C2([S@](C)(=N)=O)CC2)nc(-c2cc[nH]c3nccc2-3)n1 [AZD6738]
Ceritinib/LDK378 = compound: Cc1cc(Nc2ncc(Cl)c(Nc3ccccc3S(=O)(=O)C(C)C)n2)c(OC(C)C)cc1C1CCNCC1 [Ceritinib/LDK378]
Taselisib/GDC0032 = compound: Cc1nc(-c2cn3c(n2)-c2ccc(-c4cnn(C(C)(C)C(N)=O)c4)cc2OCC3)n(C(C)C)n1 [Taselisib/GDC0032]
AZD7762 = compound: NC(=O)Nc1cc(-c2cccc(F)c2)sc1C(=O)N[C@H]1CCCNC1 [AZD7762]
AZD5363 = compound: NC1(C(=O)N[C@@H](CCO)c2ccc(Cl)cc2)CCN(c2nc[nH]c3nccc2-3)CC1 [AZD5363]

## AU565
[1]; 0.0001 µM
  increase in dead-cell fraction: 0.0026
[1]; 0.0003162 µM
  increase in dead-cell fraction: 0.0025
[1]; 0.001 µM
  increase in dead-cell fraction: 0.0021
[1]; 0.003162 µM
  increase in dead-cell fraction: 0.0022
[1]; 0.01 µM
  increase in dead-cell fraction: 0.0009
[1]; 0.03162 µM
  increase in dead-cell fraction: -0.0017
[1]; 0.1 µM
  increase in dead-cell fraction: -0.0015
[1]; 0.3162 µM
  increase in dead-cell fraction: -0.0026
[1]; 1 µM
  increase in dead-cell fraction: 0.0032
BVD523; 0.001 µM
  increase in dead-cell fraction: -0.0105
BVD523; 0.003162 µM
  increase in dead-cell fraction: -0.0083
BVD523; 0.01 µM
  increase in dead-cell fraction: -0.0074
BVD523; 0.03162 µM
  increase in dead-cell fraction: -0.0063
BVD523; 0.1 µM
  increase in dead-cell fraction: -0.0004
BVD523; 0.3162 µM
  increase in dead-cell fraction: -0.0069
BVD523; 1 µM
  increase in dead-cell fraction: 0.0092
BVD523; 3.162 µM
  increase in dead-cell fraction: 0.0104
BVD523; 10 µM
  increase in dead-cell fraction: 0.0436
[2]; 0.001 µM
  increase in dead-cell fraction: 0.0215
[2]; 0.003162 µM
  increase in dead-cell fraction: -0.004
[2]; 0.01 µM
  increase in dead-cell fraction: 0.0231
[2]; 0.03162 µM
  increase in dead-cell fraction: 0.0204
[2]; 0.1 µM
  increase in dead-cell fraction: 0.0353
[2]; 0.3162 µM
  increase in dead-cell fraction: 0.0286
[2]; 1 µM
  increase in dead-cell fraction: 0.0615
[2]; 3.162 µM
  increase in dead-cell fraction: 0.0772
[2]; 10 µM
  increase in dead-cell fraction: 0.136
ABT-737; 0.001 µM
  increase in dead-cell fraction: 0.0066
ABT-737; 0.003162 µM
  increase in dead-cell fraction: 0.0005
ABT-737; 0.01 µM
  increase in dead-cell fraction: 0.0025
ABT-737; 0.03162 µM
  increase in dead-cell fraction: -0.0006
ABT-737; 0.1 µM
  increase in dead-cell fraction: 0.0014
ABT-737; 0.3162 µM
  increase in dead-cell fraction: 0.0008
ABT-737; 1 µM
  increase in dead-cell fraction: 0.0066
ABT-737; 3.162 µM
  increase in dead-cell fraction: 0.0073
ABT-737; 10 µM
  increase in dead-cell fraction: 0.0507
Senexin b; 0.001 µM
  increase in dead-cell fraction: -0.0057
Senexin b; 0.003162 µM
  increase in dead-cell fraction: -0.0066
Senexin b; 0.01 µM
  increase in dead-cell fraction: -0.0019
Senexin b; 0.03162 µM
  increase in dead-cell fraction: -0.0056
Senexin b; 0.1 µM
  increase in dead-cell fraction: -0.0146
Senexin b; 0.3162 µM
  increase in dead-cell fraction: 0.0036
Senexin b; 1 µM
  increase in dead-cell fraction: 0.0078
Senexin b; 3.162 µM
  increase in dead-cell fraction: 0.0105
Senexin b; 10 µM
  increase in dead-cell fraction: -0.0068
Cediranib/AZD2171; 0.001 µM
  increase in dead-cell fraction: 0.0037
Cediranib/AZD2171; 0.003162 µM
  increase in dead-cell fraction: 0.0046
Cediranib/AZD2171; 0.01 µM
  increase in dead-cell fraction: 0.0016
Cediranib/AZD2171; 0.03162 µM
  increase in dead-cell fraction: 0.0034
Cediranib/AZD2171; 0.1 µM
  increase in dead-cell fraction: -0.0003
Cediranib/AZD2171; 0.3162 µM
  increase in dead-cell fraction: -0.0061
Cediranib/AZD2171; 1 µM
  increase in dead-cell fraction: -0.0046
Cediranib/AZD2171; 3.162 µM
  increase in dead-cell fraction: -0.0048
Cediranib/AZD2171; 10 µM
  increase in dead-cell fraction: 0.0027
[3]; 0.0001 µM
  increase in dead-cell fraction: 0.0001
[3]; 0.0003162 µM
  increase in dead-cell fraction: -0.0015
[3]; 0.001 µM
  increase in dead-cell fraction: 0.0053
[3]; 0.003162 µM
  increase in dead-cell fraction: 0.016
[3]; 0.01 µM
  increase in dead-cell fraction: 0.139
[3]; 0.03162 µM
  increase in dead-cell fraction: 0.126
[3]; 0.1 µM
  increase in dead-cell fraction: 0.108
[3]; 0.3162 µM
  increase in dead-cell fraction: 0.0794
[3]; 1 µM
  increase in dead-cell fraction: 0.121
AZD6738; 0.001 µM
  increase in dead-cell fraction: 0.0013
AZD6738; 0.003162 µM
  increase in dead-cell fraction: 0.0103
AZD6738; 0.01 µM
  increase in dead-cell fraction: -0.0124
AZD6738; 0.03162 µM
  increase in dead-cell fraction: -0.0113
AZD6738; 0.1 µM
  increase in dead-cell fraction: -0.0075
AZD6738; 0.3162 µM
  increase in dead-cell fraction: -0.003
AZD6738; 1 µM
  increase in dead-cell fraction: 0.0064
AZD6738; 3.162 µM
  increase in dead-cell fraction: 0.0079
AZD6738; 10 µM
  increase in dead-cell fraction: 0.0831
Ceritinib/LDK378; 0.001 µM
  increase in dead-cell fraction: -0.0009
Ceritinib/LDK378; 0.003162 µM
  increase in dead-cell fraction: 0.0007
Ceritinib/LDK378; 0.01 µM
  increase in dead-cell fraction: 0.001
Ceritinib/LDK378; 0.03162 µM
  increase in dead-cell fraction: -0.0017
Ceritinib/LDK378; 0.1 µM
  increase in dead-cell fraction: -0.004
Ceritinib/LDK378; 0.3162 µM
  increase in dead-cell fraction: 0.0015
Ceritinib/LDK378; 1 µM
  increase in dead-cell fraction: 0.0037
Ceritinib/LDK378; 3.162 µM
  increase in dead-cell fraction: 0.0216
Taselisib/GDC0032; 0.001 µM
  increase in dead-cell fraction: 0.0087
Taselisib/GDC0032; 0.003162 µM
  increase in dead-cell fraction: 0.0153
Taselisib/GDC0032; 0.01 µM
  increase in dead-cell fraction: 0.0378
Taselisib/GDC0032; 0.03162 µM
  increase in dead-cell fraction: 0.0611
Taselisib/GDC0032; 0.1 µM
  increase in dead-cell fraction: 0.0674
Taselisib/GDC0032; 0.3162 µM
  increase in dead-cell fraction: 0.0853
Taselisib/GDC0032; 1 µM
  increase in dead-cell fraction: 0.0898
Taselisib/GDC0032; 3.162 µM
  increase in dead-cell fraction: 0.0794
Taselisib/GDC0032; 10 µM
  increase in dead-cell fraction: 0.207
AZD7762; 0.001 µM
  increase in dead-cell fraction: 0.0024
AZD7762; 0.003162 µM
  increase in dead-cell fraction: -0.0005
AZD7762; 0.01 µM
  increase in dead-cell fraction: -0.0036
AZD7762; 0.03162 µM
  increase in dead-cell fraction: -0.0044
AZD7762; 0.1 µM
  increase in dead-cell fraction: -0.0002
AZD7762; 0.3162 µM
  increase in dead-cell fraction: 0.0011
AZD7762; 1 µM
  increase in dead-cell fraction: 0.0228
AZD7762; 3.162 µM
  increase in dead-cell fraction: 0.106
AZD7762; 10 µM
  increase in dead-cell fraction: 0.232
AZD5363; 0.001 µM
  increase in dead-cell fraction: -0.0047
AZD5363; 0.003162 µM
  increase in dead-cell fraction: 0.0058
AZD5363; 0.01 µM
  increase in dead-cell fraction: 0.0054
AZD5363; 0.03162 µM
  increase in dead-cell fraction: 0.0087
AZD5363; 0.1 µM
  increase in dead-cell fraction: 0.0196
AZD5363; 0.3162 µM
  increase in dead-cell fraction: -0.0036
AZD5363; 1 µM
  increase in dead-cell fraction: 0.0183
AZD5363; 3.162 µM
  increase in dead-cell fraction: 0.0124
AZD5363; 10 µM
  increase in dead-cell fraction: 0.0512

— the supplement of paper PMC9663587
